# ChEMBL document CHEMBL5244234, “Janus kinases (JAKs): The efficient therapeutic targets for autoimmune diseases and myeloproliferative disorders” (Eur J Med Chem, 2020)
# What was measured:
# [1] = target: Proto-oncogene tyrosine-protein kinase receptor Ret (Homo sapiens, UniProt P07949); assay: Inhibition of RET (unknown origin)
# U-266 = assay: Antiproliferative activity against human U266B1 cells assessed as inhibition of cell proliferation; type: functional, cell-based
# [2] = target: Signal transducer and activator of transcription 3 (Homo sapiens, UniProt P40763); assay: Inhibition of IL6-stimulated STAT3 signalling in human CD4+ T cells; type: cell-based, T cell
# [3] = target: T1, Tyrosine-protein kinase JAK2 (Homo sapiens, UniProt O60674); assay: Inhibition of JAK2 (unknown origin) by Lanthascreen kinase assay
# [4] = target: T2, Tyrosine-protein kinase JAK3 (Homo sapiens, UniProt P52333); assay: Inhibition of JAK3 (unknown origin) by Lanthascreen kinase assay
# T2 sequence (P52333 whole entry): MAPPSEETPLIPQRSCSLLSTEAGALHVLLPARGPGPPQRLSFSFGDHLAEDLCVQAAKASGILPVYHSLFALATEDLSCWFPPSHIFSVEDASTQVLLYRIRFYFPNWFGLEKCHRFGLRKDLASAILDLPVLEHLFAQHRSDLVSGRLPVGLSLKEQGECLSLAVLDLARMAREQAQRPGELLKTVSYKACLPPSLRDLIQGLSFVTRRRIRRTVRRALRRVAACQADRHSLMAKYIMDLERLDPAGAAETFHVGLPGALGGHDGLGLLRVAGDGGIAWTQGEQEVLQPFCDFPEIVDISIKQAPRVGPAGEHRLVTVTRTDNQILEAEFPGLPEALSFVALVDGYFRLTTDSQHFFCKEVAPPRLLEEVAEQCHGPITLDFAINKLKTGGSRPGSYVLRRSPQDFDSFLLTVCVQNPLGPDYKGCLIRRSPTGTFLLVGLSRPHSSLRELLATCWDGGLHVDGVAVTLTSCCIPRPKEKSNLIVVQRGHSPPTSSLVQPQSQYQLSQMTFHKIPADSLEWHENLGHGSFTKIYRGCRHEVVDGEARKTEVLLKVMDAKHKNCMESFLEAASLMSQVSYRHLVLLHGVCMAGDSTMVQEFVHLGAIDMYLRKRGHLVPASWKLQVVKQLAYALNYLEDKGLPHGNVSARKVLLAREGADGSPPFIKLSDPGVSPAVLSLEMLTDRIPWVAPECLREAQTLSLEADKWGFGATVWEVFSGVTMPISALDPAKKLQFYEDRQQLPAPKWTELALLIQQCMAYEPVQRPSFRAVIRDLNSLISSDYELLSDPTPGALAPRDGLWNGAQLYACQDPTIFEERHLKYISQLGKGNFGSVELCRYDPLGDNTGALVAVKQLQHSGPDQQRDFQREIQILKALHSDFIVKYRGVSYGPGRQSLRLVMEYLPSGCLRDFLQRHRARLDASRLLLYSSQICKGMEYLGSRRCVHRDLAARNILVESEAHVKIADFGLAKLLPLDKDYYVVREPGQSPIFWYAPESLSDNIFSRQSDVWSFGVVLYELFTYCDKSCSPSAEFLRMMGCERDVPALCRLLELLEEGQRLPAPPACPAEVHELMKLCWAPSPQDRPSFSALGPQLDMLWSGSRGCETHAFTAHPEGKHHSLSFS
# HCT-116 [5] = assay: Antitumor activity against human HCT-116 cells xenografted in Balb/c mouse assessed as tumor growth inhibition at 15 mg/kg relative to control; type: functional; settings: read-out: TGI
# HCT-116 [6] = assay: Antitumor activity against human HCT-116 cells xenografted in Balb/c mouse assessed as tumor growth inhibition at 20 mg/kg relative to control; type: functional; settings: read-out: TGI
# [7] = target: T3, Tyrosine-protein kinase JAK1 (Homo sapiens, UniProt P23458); assay: Competitive inhibition of JAK1 (unknown origin) in the presence of ATP
# [8] = target: T1, Tyrosine-protein kinase JAK2; assay: Competitive inhibition of JAK2 (unknown origin) in the presence of ATP
# Rattus norvegicus [9] = assay: Antiarthritic activity in CFA-induced Lewis rat assessed as increase in hind paw volume at 1 mg/kg administered for 2 weeks by plethysmometer relative to control; type: functional
# Rattus norvegicus [10] = assay: Antiarthritic activity in CFA-induced Lewis rat assessed as increase in hind paw volume at 3 to 10 mg/kg administered for 2 weeks by plethysmometer relative to control; type: functional; settings: dose 3-10 mg/kg
# [11] = target: T3, Tyrosine-protein kinase JAK1; assay: Inhibition of JAK1 (unknown origin) assessed as inhibition constant
# [12] = Inhibition of STAT5 phosphorylation in IL-2 stimulated mouse HT-2 cells; type: cell-based; settings: HT2
# [13] = Inhibition of T cell proliferation in Balb/c mouse spleenocytes by MLR assay; type: toxicity, cell-based; settings: Splenocyte
# [14] = Inhibition of T cell proliferation in CBA mouse spleenocytes by MLR assay; type: toxicity, cell-based; settings: Splenocyte
# [15] = Inhibition of IL-2 stimulated human T cell proliferation; type: toxicity, cell-based
# B cell = assay: Inhibition of cell proliferation in CD40L/IL-4-induced human B cells; type: toxicity, cell-based
# BaF3 [16] = assay: Antiproliferative activity against mouse BaF3 cells harboring JAK2 V617F mutant assessed as inhibition of cell proliferation incubated for 72 hrs by XTT assay; type: toxicity, cell-based; settings: BaF3, 72 h
# [17] = Antiproliferative activity against mouse BaF3 cells assessed as inhibition of cell proliferation incubated for 72 hrs by XTT assay; type: toxicity, cell-based
# HEL = assay: cells; settings: Homo sapiens, 72 h
# [18] = target: T4, Non-receptor tyrosine-protein kinase TYK2 (Homo sapiens, UniProt P29597); assay: Inhibition of TYK2 (unknown origin)
# BaF3 [19] = assay: Inhibition of cell proliferation in mouse BaF3 cells expressing JAK2 V617F mutant; type: toxicity, cell-based
# [20] = Inhibition of STAT5 phosphorylation in mouse BaF3 cells expressing JAK2 V617F mutant incubated for 5 hrs by Alphascreen SureFire assay; type: cell-based; settings: BaF3, 5 h
# [21] = target: Tyrosine-protein kinase JAK2 (Mus musculus, UniProt Q62120); assay: Inhibition of IL-3 stimulated wild type JAK2-mediated signalling in mouse BaF3 cells preincubated with compound for 5 hrs followed by IL-3 stimulation and measured after 20 mins by Alphascreen SureFire assay; type: cell-based
# BaF3 [22] = assay: Inhibition of cell proliferation in IL-3 stimulated mouse BaF3 cells expressing wild-type JAK2; type: toxicity, cell-based
# [23] = target: T1, Tyrosine-protein kinase JAK2; assay: Inhibition of JAK2 (unknown origin)
# [24] = target: T2, Tyrosine-protein kinase JAK3; assay: Inhibition of JAK3 (unknown origin)
# [25] = target: T3, Tyrosine-protein kinase JAK1; assay: Inhibition of JAK1 (unknown origin)
# Homo sapiens [26] = species on record: Homo sapiens; assay: Selectivity index, ratio of IC50 for inhibition of JAK2 (unknown origin) to IC50 for inhibition of JAK1 (unknown origin)
# Homo sapiens [27] = species on record: Homo sapiens; assay: Selectivity index, ratio of IC50 for inhibition of JAK3 (unknown origin) to IC50 for inhibition of JAK1 (unknown origin)
# Homo sapiens [28] = species on record: Homo sapiens; assay: Selectivity index, ratio of IC50 for inhibition of TYK2 (unknown origin) to IC50 for inhibition of JAK1 (unknown origin)
# [29] = target: T3, Tyrosine-protein kinase JAK1; assay: Inhibition of human JAK1 kinase domain incubated for 1 hrs in the presence of ATP by spectrophotometric analysis
# [30] = target: T1, Tyrosine-protein kinase JAK2; assay: Inhibition of human JAK2 kinase domain incubated for 1 hrs in the presence of ATP by spectrophotometric analysis
# [31] = target: T2, Tyrosine-protein kinase JAK3; assay: Inhibition of human JAK3 kinase domain incubated for 1 hrs in the presence of ATP by spectrophotometric analysis
# [32] = target: T4, Non-receptor tyrosine-protein kinase TYK2; assay: Inhibition of human TYK2 kinase domain incubated for 1 hrs in the presence of ATP by spectrophotometric analysis
# Homo sapiens [33] = species on record: Homo sapiens; assay: Selectivity index, ratio of IC50 for inhibition of human JAK1 kinase domain to IC50 for inhibition of human JAK2 kinase domain incubated for 1 hrs in the presence of ATP by spectrophotometric analysis
# Homo sapiens [34] = species on record: Homo sapiens; assay: Selectivity index, ratio of IC50 for inhibition of human JAK3 kinase domain to IC50 for inhibition of human JAK2 kinase domain incubated for 1 hrs in the presence of ATP by spectrophotometric analysis
# Homo sapiens [35] = species on record: Homo sapiens; assay: Selectivity index, ratio of IC50 for inhibition of human TYK2 kinase domain to IC50 for inhibition of human JAK2 kinase domain incubated for 1 hrs in the presence of ATP by spectrophotometric analysis
# BaF3 [36] = assay: Antiproliferative activity against mouse BaF3 cells harboring JAK2 V617F mutation incubated for 72 hrs by MTT assay; type: functional, cell-based; settings: BaF3, 72 h
# BaF3 [37] = assay: Antiproliferative activity against mouse BaF3 cells expressing TEL fused JAK2 incubated for 72 hrs by MTT assay; type: functional, cell-based; settings: BaF3, 72 h
# [38] = target: T2, Tyrosine-protein kinase JAK3; assay: Inhibition of recombinant human JAK3 (781 to 1124 residues)
# [39] = target: T4, Non-receptor tyrosine-protein kinase TYK2; assay: Inhibition of recombinant human TYK2 (870 to 1187 residues)
# T3 sequence (P23458 whole entry): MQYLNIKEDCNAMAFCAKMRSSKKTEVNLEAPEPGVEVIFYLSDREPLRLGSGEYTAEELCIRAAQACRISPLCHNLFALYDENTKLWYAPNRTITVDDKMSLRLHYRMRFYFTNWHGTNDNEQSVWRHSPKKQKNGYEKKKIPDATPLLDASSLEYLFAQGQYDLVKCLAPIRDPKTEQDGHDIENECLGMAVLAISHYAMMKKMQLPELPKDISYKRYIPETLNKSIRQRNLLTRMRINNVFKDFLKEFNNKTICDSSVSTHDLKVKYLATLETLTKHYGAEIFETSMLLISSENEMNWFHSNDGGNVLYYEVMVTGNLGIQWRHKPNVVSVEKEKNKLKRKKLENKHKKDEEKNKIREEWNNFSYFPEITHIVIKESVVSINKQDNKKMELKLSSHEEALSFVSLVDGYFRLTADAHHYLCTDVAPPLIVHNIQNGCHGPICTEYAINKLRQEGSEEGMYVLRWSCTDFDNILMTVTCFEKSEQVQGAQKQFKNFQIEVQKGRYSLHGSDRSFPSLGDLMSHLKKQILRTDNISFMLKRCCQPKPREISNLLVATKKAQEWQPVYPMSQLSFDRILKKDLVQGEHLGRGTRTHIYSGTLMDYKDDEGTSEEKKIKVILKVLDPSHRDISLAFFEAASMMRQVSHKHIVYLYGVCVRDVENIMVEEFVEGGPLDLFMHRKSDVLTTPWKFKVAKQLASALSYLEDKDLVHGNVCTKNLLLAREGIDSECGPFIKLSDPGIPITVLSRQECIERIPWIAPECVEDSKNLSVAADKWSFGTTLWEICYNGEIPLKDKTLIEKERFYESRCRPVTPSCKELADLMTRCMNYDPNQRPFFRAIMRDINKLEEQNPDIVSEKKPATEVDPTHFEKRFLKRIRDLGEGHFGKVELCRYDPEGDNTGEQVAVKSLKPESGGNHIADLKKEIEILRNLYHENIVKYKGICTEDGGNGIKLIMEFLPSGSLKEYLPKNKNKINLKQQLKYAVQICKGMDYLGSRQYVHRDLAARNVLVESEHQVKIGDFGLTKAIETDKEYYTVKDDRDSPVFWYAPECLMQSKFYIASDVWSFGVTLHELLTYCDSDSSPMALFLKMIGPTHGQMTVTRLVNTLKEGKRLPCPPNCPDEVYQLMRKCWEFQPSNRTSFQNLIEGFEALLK
# T1 sequence (O60674 whole entry): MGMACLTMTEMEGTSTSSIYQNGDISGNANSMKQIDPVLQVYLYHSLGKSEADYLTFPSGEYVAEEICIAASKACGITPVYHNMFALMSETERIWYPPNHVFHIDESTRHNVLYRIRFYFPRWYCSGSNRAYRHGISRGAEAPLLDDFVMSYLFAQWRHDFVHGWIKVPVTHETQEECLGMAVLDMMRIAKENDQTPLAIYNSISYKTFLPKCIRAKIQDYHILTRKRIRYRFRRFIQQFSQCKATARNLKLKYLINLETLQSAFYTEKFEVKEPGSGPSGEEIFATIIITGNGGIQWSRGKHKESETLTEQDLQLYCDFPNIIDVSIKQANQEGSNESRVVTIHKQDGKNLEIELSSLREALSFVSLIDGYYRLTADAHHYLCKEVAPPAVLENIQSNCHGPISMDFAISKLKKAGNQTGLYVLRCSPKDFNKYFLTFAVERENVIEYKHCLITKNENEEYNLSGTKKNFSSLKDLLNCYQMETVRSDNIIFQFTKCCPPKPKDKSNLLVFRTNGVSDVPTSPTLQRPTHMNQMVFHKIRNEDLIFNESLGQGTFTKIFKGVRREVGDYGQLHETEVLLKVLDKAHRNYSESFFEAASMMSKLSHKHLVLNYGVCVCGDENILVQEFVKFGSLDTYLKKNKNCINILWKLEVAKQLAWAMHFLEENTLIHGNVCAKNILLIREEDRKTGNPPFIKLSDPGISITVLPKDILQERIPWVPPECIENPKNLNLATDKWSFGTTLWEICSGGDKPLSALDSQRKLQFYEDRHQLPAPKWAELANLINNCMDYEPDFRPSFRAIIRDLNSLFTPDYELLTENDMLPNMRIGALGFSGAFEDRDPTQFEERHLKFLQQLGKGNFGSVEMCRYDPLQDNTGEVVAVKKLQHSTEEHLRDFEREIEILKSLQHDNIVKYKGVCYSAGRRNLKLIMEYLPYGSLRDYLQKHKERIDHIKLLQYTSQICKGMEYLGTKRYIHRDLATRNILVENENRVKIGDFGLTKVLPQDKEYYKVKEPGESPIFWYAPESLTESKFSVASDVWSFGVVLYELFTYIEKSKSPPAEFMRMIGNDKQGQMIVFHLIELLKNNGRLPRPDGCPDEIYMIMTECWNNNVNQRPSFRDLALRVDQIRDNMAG
# T4 sequence (P29597 whole entry): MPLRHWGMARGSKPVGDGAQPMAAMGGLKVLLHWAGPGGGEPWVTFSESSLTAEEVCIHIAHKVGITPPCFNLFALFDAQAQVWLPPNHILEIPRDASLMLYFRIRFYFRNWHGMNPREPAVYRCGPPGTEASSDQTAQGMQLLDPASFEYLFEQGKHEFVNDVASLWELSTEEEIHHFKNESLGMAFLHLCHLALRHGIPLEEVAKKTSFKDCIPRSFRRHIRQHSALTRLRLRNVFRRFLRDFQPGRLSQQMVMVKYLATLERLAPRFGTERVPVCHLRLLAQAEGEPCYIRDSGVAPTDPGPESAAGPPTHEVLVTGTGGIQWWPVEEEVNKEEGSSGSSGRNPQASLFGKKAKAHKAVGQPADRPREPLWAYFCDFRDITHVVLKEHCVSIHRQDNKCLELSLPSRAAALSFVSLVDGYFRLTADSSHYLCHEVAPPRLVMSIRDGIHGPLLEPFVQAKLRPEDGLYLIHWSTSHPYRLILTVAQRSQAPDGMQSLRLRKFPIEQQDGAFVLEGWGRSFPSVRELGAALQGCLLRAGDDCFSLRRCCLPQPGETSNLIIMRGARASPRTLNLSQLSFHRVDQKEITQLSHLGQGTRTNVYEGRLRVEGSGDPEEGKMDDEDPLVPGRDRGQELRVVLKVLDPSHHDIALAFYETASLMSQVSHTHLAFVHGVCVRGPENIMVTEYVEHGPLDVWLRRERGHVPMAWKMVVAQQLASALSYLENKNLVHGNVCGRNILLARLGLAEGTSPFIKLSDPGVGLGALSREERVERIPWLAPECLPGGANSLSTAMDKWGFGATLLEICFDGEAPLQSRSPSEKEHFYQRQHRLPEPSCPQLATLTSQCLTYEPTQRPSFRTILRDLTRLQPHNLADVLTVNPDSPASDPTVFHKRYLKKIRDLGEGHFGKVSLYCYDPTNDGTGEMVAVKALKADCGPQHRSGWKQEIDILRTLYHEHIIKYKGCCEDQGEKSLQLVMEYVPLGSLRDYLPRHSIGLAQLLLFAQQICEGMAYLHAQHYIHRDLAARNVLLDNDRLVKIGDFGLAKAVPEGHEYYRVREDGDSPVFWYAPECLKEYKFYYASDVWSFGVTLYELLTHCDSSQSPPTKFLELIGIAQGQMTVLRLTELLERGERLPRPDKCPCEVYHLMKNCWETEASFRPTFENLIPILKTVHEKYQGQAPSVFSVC
# Chain of Proto-oncogene tyrosine-protein kinase receptor Ret (P07949 whole entry): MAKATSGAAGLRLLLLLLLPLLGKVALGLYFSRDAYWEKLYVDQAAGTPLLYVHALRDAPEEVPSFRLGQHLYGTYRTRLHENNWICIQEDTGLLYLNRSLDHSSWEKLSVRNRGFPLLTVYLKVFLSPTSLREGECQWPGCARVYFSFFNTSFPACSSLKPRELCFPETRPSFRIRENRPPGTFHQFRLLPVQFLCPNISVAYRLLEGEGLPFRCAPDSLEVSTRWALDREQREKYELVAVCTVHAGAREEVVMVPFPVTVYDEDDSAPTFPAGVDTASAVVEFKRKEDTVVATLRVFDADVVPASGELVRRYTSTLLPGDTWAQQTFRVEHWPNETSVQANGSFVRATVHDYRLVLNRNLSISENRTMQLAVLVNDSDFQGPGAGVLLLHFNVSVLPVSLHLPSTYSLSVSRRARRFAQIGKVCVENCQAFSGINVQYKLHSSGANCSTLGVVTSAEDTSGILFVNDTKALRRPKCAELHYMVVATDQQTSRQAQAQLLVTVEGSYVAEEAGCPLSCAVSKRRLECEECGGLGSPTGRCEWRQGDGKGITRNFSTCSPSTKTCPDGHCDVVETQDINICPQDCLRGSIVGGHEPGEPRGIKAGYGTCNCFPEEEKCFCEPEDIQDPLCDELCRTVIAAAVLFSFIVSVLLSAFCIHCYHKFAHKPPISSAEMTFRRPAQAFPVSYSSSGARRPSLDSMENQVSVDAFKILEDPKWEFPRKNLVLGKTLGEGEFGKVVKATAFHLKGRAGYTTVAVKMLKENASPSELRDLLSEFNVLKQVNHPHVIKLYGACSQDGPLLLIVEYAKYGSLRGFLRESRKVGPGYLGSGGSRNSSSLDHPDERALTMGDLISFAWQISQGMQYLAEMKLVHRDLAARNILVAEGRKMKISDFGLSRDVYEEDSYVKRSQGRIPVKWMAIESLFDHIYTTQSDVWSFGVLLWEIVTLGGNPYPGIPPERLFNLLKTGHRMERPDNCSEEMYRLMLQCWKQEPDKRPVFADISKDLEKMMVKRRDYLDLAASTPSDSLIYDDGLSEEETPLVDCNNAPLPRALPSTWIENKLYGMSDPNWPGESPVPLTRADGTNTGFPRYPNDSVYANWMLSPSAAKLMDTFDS
smiles,measurement,setting,value
Cc1cnc(Nc2ccc(N3CCN(C)CC3)cc2)nc1Nc1cccc(S(=O)(=O)NC(C)(C)C)c1,IC50,[1],17 nM
CC(C)(C)c1nc2c3ccc(F)cc3c3c(=O)[nH]ccc3c2[nH]1,IC50,U-266,250 nM
CN(C)C(=O)/C(C#N)=C/c1ccc(-c2nc3cnc4[nH]ccc4c3n2C2CCCCC2)o1,IC50,[2],1000 nM
Cc1cc(Nc2ccc3nc(C)n([C@@H]4CCc5ccc(F)cc54)c3c2)[nH]n1,IC50,[3],2 nM
same,IC50,[4],8 nM
O=C(Nc1c[nH]nc1-c1nc2ccc(CN3CCOCC3)cc2[nH]1)NC1CC1 [AT-9283],inhibition in vivo at 15 mg/kg,HCT-116 [5],67%
same,inhibition in vivo at 20 mg/kg,HCT-116 [6],76%
Cc1cc(Nc2nc(N[C@@H](C)c3ncc(F)cn3)ncc2Cl)n[nH]1 [AZD-1480],IC50,[7],1.3 nM
same,IC50,[8],0.4 nM
CCS(=O)(=O)N1CC(CC#N)(n2cc(-c3ncnc4[nH]ccc34)cn2)C1 [BARICITINIB],Activity,Rattus norvegicus [9],50%
same,Activity,Rattus norvegicus [10],>95%
CC[C@@](C)(Nc1ccnc(-c2c[nH]c3ncccc23)n1)C(=O)NCC(F)(F)F [DECERNOTINIB],Ki,[11],11 nM
same,IC50,[12],50 nM
same,IC50,[13],50 nM
same,IC50,[14],50 nM
same,IC50,[15],50 nM
same,IC50,B cell,50 nM
Cc1cnc(Nc2ccc(OCCN3CCCC3)cc2)nc1Nc1cccc(S(=O)(=O)NC(C)(C)C)c1 [FEDRATINIB],IC50,BaF3 [16],270 nM
same,IC50 at 72 h,[17],420 nM
same,IC50,HEL,305 nM
Cc1cc(Nc2cc(CN3CCOCC3)c3nc(C)c(Cc4ccc(Cl)cc4F)n3n2)n[nH]1 [GANDOTINIB],IC50,[18],44 nM
same,IC50,[4],48 nM
same,IC50,BaF3 [19],55 nM
same,IC50,[20],20 nM
same,IC50,[21],1180 nM
same,IC50,BaF3 [22],1310 nM
N#CCC1(n2cc(-c3ncnc4[nH]ccc34)cn2)CN(C2CCN(C(=O)c3ccnc(C(F)(F)F)c3F)CC2)C1 [ITACITINIB],IC50,[23],63 nM
same,IC50,[24],2000 nM
same,IC50,[25],2 nM
same,IC50,[18],795 nM
same,Ratio IC50,Homo sapiens [26],> 20
same,Ratio IC50,Homo sapiens [27],> 100
same,Ratio IC50,Homo sapiens [28],> 100
C[C@H](Nc1cc(-c2cnn(C)c2)cc(Nc2cnccn2)n1)c1ccc(F)cc1 [NS-018],IC50,[29],33 nM
same,IC50,[30],0.72 nM
same,IC50,[31],39 nM
same,IC50,[32],22 nM
same,Ratio IC50,Homo sapiens [33],46
same,Ratio IC50,Homo sapiens [34],54
same,Ratio IC50,Homo sapiens [35],31
same,IC50,BaF3 [36],11 nM
same,IC50,BaF3 [37],11 nM
CNS(=O)(=O)C[C@H]1CC[C@H](N(C)c2ncnc3[nH]ccc23)CC1 [OCLACITINIB],IC50,[38],99 nM
same,IC50,[39],84 nM
CC1(C)CN(C(=O)c2ccc(-c3cccc4nc(NC(=O)C5CC5)nn34)cc2)C1 [SOLCITINIB],IC50,[23],108 nM
same,IC50,[24],539 nM
same,IC50,[25],9.8 nM
same,IC50,[18],225 nM
same,Ratio IC50,Homo sapiens [26],11
same,Ratio IC50,Homo sapiens [27],55
same,Ratio IC50,Homo sapiens [28],23
